Data taken from patent publication US12391737B2, “Soluble NPY2 receptor agonists” (Boehringer Ingelheim International GmbH, priority 2020, dated 2025).

Legend:
[1] = Solubility determination; conditions: for Sol6: pH 6; for Sol7: pH 7
Experimental: Peptides (as TFA salts) were weighed out in a filter unit (Mini-UniPrep Syringeless Filter 0.45 μm, Whatman), and 0.1 M sodium diphosphate buffer at pH 6.4 or 7.0 was added to achieve 10 mg/ml final concentration. The peptide was dissolved by shaking the filter unit horizontally at 600 rpm for 2 hours at room temperature. The sample was filtered, to remove any insoluble particles and diluted to 1 mg/ml in 50% acetonitrile. The control was prepared by weighing out the corresponding peptide and dissolving it in 50% acetonitrile to final concentration of 1 mg/ml. Both the control and sample were analysed with reversed phase chromatography. The area under the peak of the sample was compared to the control and the solubility was calculated based on that ratio.
The pH was measured and recorded for each sample.
System: UltiMate 3000 UPLC, ThermoFisher
Mobile phase A: 5% acetonitrile, 95% water, 0.03% trifluoracetic acid.
Mobile phase B: 95% acetonitrile, 5% water, 0.03% trifluoracetic acid.
Gradient: 0-100% mobile phase B (2 mins.)
Column temperature: 50° C.

[2] = target: T1, Human Neuropeptide Y2 Receptor (Homo sapiens, UniProt P49146); assay: Radioligand binding competition assay (RLB); conditions: Table 3, 125I-PYY(1-36) competition; read-out: Ki
T1 construct: purchased CHEMICON HTS066M
T1 sequence (P49146 1-381): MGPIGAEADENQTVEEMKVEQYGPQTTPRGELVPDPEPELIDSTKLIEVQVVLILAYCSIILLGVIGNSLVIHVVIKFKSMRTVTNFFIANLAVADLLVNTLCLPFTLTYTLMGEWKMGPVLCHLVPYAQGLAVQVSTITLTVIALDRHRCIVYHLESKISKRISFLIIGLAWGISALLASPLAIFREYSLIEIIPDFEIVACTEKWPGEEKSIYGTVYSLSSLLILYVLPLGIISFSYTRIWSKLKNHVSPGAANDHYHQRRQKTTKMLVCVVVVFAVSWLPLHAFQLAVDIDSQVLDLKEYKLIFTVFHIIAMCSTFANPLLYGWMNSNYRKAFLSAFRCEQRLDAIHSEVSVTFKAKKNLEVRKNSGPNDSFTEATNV
Experimental: The filtration RLB assay was carried out in 96-well plates in a final volume of 100 μl per well. Freeze-dried test peptides were dissolved in 100% dimethyl sulfoxide (DMSO) to stock solutions of 1 mM and serial dilutions were performed in assay buffer (50 mM HEPES, 5 mM MgCl2, 1 mM CaCl2, pH 7.4) containing 0.2% ovalbumin. […] Next, 80 μL membranes (HTS066M, ChemiSCREEN™ Human Neuropeptide Y2 Receptor Membrane Preparation, CHEMICON) were added to each well to give a final protein concentration of 0.5 μg/well. The plates were sealed and incubated at room temperature for 2 hours in a plate shaker set at 400 rpm. The incubation was stopped by vacuum filtration onto 0.5% polyethylene amine (PE) presoaked GF/C filters using a 96-well FilterMate™ harvester (Perkin Elmer) followed by four washes with 300 μl/well ice-cold wash buffer (50 mM HEPES, 500 mM NaCl, pH7.4). Filter plates were then dried for 60 min at room temperature and the bottom of the plates was sealed with backing tape UniFilter-96. Finally, 50 μl/well scintillation counter cocktail (Microscint20, Packard) was added and the radioactivity was counted in the Packard TopCount NXT scintillation counter. IC50 values (the half maximal inhibitory concentration of the agonist) were calculated by nonlinear regression analysis of sigmoidal dose-response curves.

Sol6 [1] | Sol7 [1] | Ki [2] | Structure (SMILES)
10.0 mg/mL | 10.0 mg/mL | 6.91 nM | CC(C)CC(=O)N[C@@H](C)C(=O)N1CCC[C@H]1C(=O)N[C@@H](CCC(=O)O)C(=O)N[C@@H](CCCCNC(=O)CCCCCNC(=O)CC[C@H](NC(=O)CCCCCCCCCCCCCCCCC(=O)O)C(=O)O)C(=O)N1CCC[C@H]1C(=O)N[C@@H](CCC(=O)O)C(=O)N[C@@H](CCC(=O)O)C(=O)N[C@@H](CC(=O)O)C(=O)N[C@@H](C)C(=O)N[C@H](C(=O)N[C@@H](CO)C(=O)N[C@@H](CCC(=O)O)C(=O)N[C@@H](CCC(=O)O)C(=O)N[C@@H](CC(C)C)C(=O)N[C@@H](CCC(N)=O)C(=O)N[C@@H](CCCNC(=N)N)C(=O)N[C@@H](Cc1ccc(O)cc1)C(=O)N[C@@H](Cc1ccc(O)cc1)C(=O)N[C@H](C(=O)N[C@@H](CO)C(=O)N[C@@H](CC(C)C)C(=O)N[C@@H](CCCNC(=N)N)C(=O)N[C@@H](Cc1c[nH]cn1)C(=O)N[C@@H](Cc1ccc(O)cc1)C(=O)N[C@@H](Cc1ccc(O)cc1)C(=O)N[C@@H](CC(N)=O)C(=O)N[C@@H](Cc1c[nH]c2ccccc12)C(=O)N[C@@H](CC(C)C)C(=O)N[C@H](C(=O)N[C@@H](CCCNC(=N)N)C(=O)N[C@@H](CCC(N)=O)C(=O)N[C@@H](CCCNC(=N)N)C(=O)N[C@@H](Cc1ccc(O)cc1)C(N)=O)[C@@H](C)O)C(C)C)[C@@H](C)O [Compound 83, N{alpha-4}-(3-methylbutanoyl)-N{epsilon-7}-(6-[(4S)-4-carboxy-4-(17-carboxyheptadecanamido)butanamido]hexanoyl)-[4A,7K,9E,13T,14S,18Q,22V,28Y,30W,31L]-hPYY(4-36)]
9.6 mg/mL | 9.7 mg/mL | 2.59 nM | CC(C)CC(=O)N[C@@H](C)C(=O)N1CCC[C@H]1C(=O)N[C@@H](CCC(=O)O)C(=O)N[C@@H](CCCCNC(=O)CCCCCNC(=O)CC[C@H](NC(=O)CCCCCCCCCCCCCCCCC(=O)O)C(=O)O)C(=O)N1CCC[C@H]1C(=O)N[C@@H](CCC(=O)O)C(=O)N[C@@H](CCC(=O)O)C(=O)N[C@@H](CC(=O)O)C(=O)N[C@@H](C)C(=O)N[C@H](C(=O)N1CCC[C@H]1C(=O)N[C@@H](CCC(=O)O)C(=O)N[C@@H](CCC(=O)O)C(=O)N[C@@H](CC(C)C)C(=O)N[C@@H](CCC(N)=O)C(=O)N[C@@H](CCCNC(=N)N)C(=O)N[C@@H](Cc1ccc(O)cc1)C(=O)N[C@@H](Cc1ccc(O)cc1)C(=O)N[C@H](C(=O)N[C@@H](CCC(N)=O)C(=O)N[C@@H](CC(C)C)C(=O)N[C@@H](CCCNC(=N)N)C(=O)N[C@@H](Cc1c[nH]cn1)C(=O)N[C@@H](Cc1ccc(O)cc1)C(=O)N[C@@H](Cc1ccc(O)cc1)C(=O)N[C@@H](CC(N)=O)C(=O)N[C@@H](Cc1c[nH]c2ccccc12)C(=O)N[C@@H](CC(C)C)C(=O)N[C@H](C(=O)N[C@@H](CCCNC(=N)N)C(=O)N[C@@H](CCC(N)=O)C(=O)N[C@@H](CCCNC(=N)N)C(=O)N[C@@H](Cc1ccc(O)cc1)C(N)=O)[C@@H](C)O)C(C)C)[C@@H](C)O [Compound 51, N{alpha-4}-(3-methylbutanoyl)-N{epsilon-7}-(6-[(4S)-4-carboxy-4-(17-carboxyheptadecanamido)butanamido]hexanoyl)-[4A,7K,9E,13T,18Q,22V,23Q,28Y,30W,31L]-hPYY(4-36)]
3.6 mg/mL | 8.8 mg/mL | 12.7 nM | CC(C)CC(=O)N[C@@H](C)C(=O)N1CCC[C@H]1C(=O)N[C@@H](C)C(=O)N[C@@H](CCCCNC(=O)CCCCCNC(=O)CC[C@H](NC(=O)CCCCCCCCCCCCCCCCC(=O)O)C(=O)O)C(=O)N1CCC[C@H]1C(=O)N[C@@H](CCC(=O)O)C(=O)N[C@@H](CCC(=O)O)C(=O)N[C@@H](CC(=O)O)C(=O)N[C@@H](C)C(=O)N[C@@H](CO)C(=O)N1CCC[C@H]1C(=O)N[C@@H](CCC(=O)O)C(=O)N[C@@H](CCC(=O)O)C(=O)N[C@@H](CC(C)C)C(=O)N[C@@H](CCC(N)=O)C(=O)N[C@@H](CCCNC(=N)N)C(=O)N[C@@H](CCC(N)=O)C(=O)N[C@@H](Cc1ccc(O)cc1)C(=O)N[C@H](C(=O)N[C@@H](CO)C(=O)N[C@@H](CC(C)C)C(=O)N[C@@H](CCCNC(=N)N)C(=O)N[C@@H](Cc1c[nH]cn1)C(=O)N[C@@H](Cc1ccc(O)cc1)C(=O)N[C@@H](Cc1ccc(O)cc1)C(=O)N[C@@H](CC(N)=O)C(=O)N[C@@H](Cc1c[nH]c2ccccc12)C(=O)N[C@@H](CC(C)C)C(=O)N[C@H](C(=O)N[C@@H](CCCNC(=N)N)C(=O)N[C@@H](CCC(N)=O)C(=O)N[C@@H](CCCNC(=N)N)C(=O)N[C@@H](Cc1ccc(O)cc1)C(N)=O)[C@@H](C)O)C(C)C [Compound 5, N{alpha-4}-(3-methylbutanoyl)-N{epsilon-7}-(6-[(4S)-4-carboxy-4-(17-carboxyheptadecanamido)butanamido]hexanoyl)[4A,6A,7K,9E,18Q,20Q,22V,28Y,30W,31L]-hPYY(4-36)]
9.7 mg/mL | 10.0 mg/mL | 5.86 nM | CC(C)CC(=O)N[C@@H](C)C(=O)N1CCC[C@H]1C(=O)N[C@@H](CCC(=O)O)C(=O)N[C@@H](CCCCNC(=O)CCCCCNC(=O)CC[C@H](NC(=O)CCCCCCCCCCCCCCCCC(=O)O)C(=O)O)C(=O)N1CCC[C@H]1C(=O)N[C@@H](CCC(=O)O)C(=O)N[C@@H](CCC(=O)O)C(=O)N[C@@H](CC(=O)O)C(=O)N[C@@H](C)C(=O)N[C@H](C(=O)N1CCC[C@H]1C(=O)N[C@@H](CCC(=O)O)C(=O)N[C@@H](CCC(=O)O)C(=O)N[C@@H](CC(C)C)C(=O)N[C@@H](CCC(N)=O)C(=O)N[C@@H](CCCNC(=N)N)C(=O)N[C@@H](Cc1ccc(O)cc1)C(=O)N[C@@H](Cc1ccc(O)cc1)C(=O)N[C@H](C(=O)NCC(=O)N[C@@H](CC(C)C)C(=O)N[C@@H](CCCNC(=N)N)C(=O)N[C@@H](Cc1c[nH]cn1)C(=O)N[C@@H](Cc1ccc(O)cc1)C(=O)N[C@@H](Cc1ccc(O)cc1)C(=O)N[C@@H](CC(N)=O)C(=O)N[C@@H](Cc1c[nH]c2ccccc12)C(=O)N[C@@H](CC(C)C)C(=O)N[C@H](C(=O)N[C@@H](CCCNC(=N)N)C(=O)N[C@@H](CCC(N)=O)C(=O)N[C@@H](CCCNC(=N)N)C(=O)N[C@@H](Cc1ccc(O)cc1)C(N)=O)[C@@H](C)O)C(C)C)[C@@H](C)O [Compound 44, N{alpha-4}-(3-methylbutanoyl)-N{epsilon-7}-(6-[(4S)-4-carboxy-4-(17-carboxyheptadecanamido)butanamido]hexanoyl)[4A,7K,9E,13T,18Q,22V,23G,28Y,30W,31L]-hPYY(4-36)]
